“Also recorded” adds a separate entry of the source. Read-outs that look alike come from different tables or passages of the source.
Key:
[1] = test system: MCF-7 cells; assay: Modulation studies (ESCREEN only): effect of potential modulators on the response evoked by a reference mixture of estrogens (REFmix); format: cell-based, human; conditions: for Modulation of the REFmix effect (in words) / Concentration at which suppression of the ESCREEN response to REFmix began: ESCREEN; for Observed modulation: ESCREEN response to REFmix (Mixture 3d, ca. 50% effect), screening, one experiment; for Concentration at which suppression of the ESCREEN response to REFmix began: individual modulator screening
From the text: Modulation studies comprised screening of individual modulators in low power experiments accompanied by parallel testing of an equimolar mixture of all modulators. This combination of low power screening and mixture testing provides the opportunity to assess a high number of chemicals (16 in this case) without a prohibitive amount of experimental effort. In this case the effects of 16 modulators could be evaluated using a total of 19 experimental plates (16 for screening and 3 for mixture testing).
To normalize for small changes in the absolute value of the positive control and the control response to the selected REFmix concentration, the response evoked by the REFmix control on each plate was defined as the 50% effect and all modulator study results are normalized to that value.
A mixture of modulators (MODmix) was also tested and was composed with a fixed ratio of equimolar concentrations, since the activity of each modulator was not known at the time of designing the mixture.
In these modulator studies, we examined 16 single chemicals (listed in Table 7) and an equimolar mixture of all 16 components for their ability to modulate the effects of a reference mixture (REFmix) which contained 14 food additives and contaminants (Table 1, Mixture 3d). […] Single chemicals were tested individually in single experiments (screening) and then a mixture composed using a fixed ratio of equal molarities was subjected to repeated testing.
Figure 5 Results of modulation studies. […] Experimental results are shown as grey circles representing each replicate (duplicate testing within the assay) and obtained in three independent (A) or one (B–Q) experiment (s). Experimental results were normalized by setting the value observed for the REFmix alone, the concentration of which was selected to evoke a […] of ca. 50%, to 0.5. The positive control values (black circles, eight replicates per experimental plate, 25 nM estradiol) are indicated adjacent to the y-axis. […] A black line indicates a LOESS spline fit to the data (A–Q) and a grey line indicates linear regression fit to the data for individual modulators (B–Q). A vertical dotted line is drawn at a mixture concentration of 1.6 µM (A) or at the concentration of each modulator present at that mixture concentration (0.1 uM, B–Q). Visual inspection of the individual modulator results (B–Q) was used to identify possible modulation, i.e. when the experimental data appears to deviate from the linear regression, or when the linear regression is not horizontal, and when the magnitude of the modulation is outside the variation expected in the assay.

[2] = test system: MCF-7 cells; assay: Estrogenicity assay, mitogenic endpoint (ESCREEN); conditions: for Signs of estrogenicity (in words): chemical screened as potential modulator, tested alone; for Signs of estrogenicity: Active at concentration: ‘Active’ = positive signal clearly distinguishable from assay variability and noise
Method: The ESCREEN assay was performed using cloned MCF-7 cells (described in [6], gifted from A. Soto, Boston) and the established ESCREEN method was followed using an adapted 96-well format. Cells were cultured in DMEM (5% FCS). For experiments, cells were seeded in clear polystyrene 96 well plates at a density of 2,500 cells/well and allowed to attach for 24 hours before washing with rinse media (phenol red-free DMEM, no supplements). […] Test chemicals were dissolved in ethanol to give stock solutions of millimolar concentrations. Test and control solutions were diluted prior to application in dosing media (phenol red free DMEM, 10% charcoal-dextran stripped FCS). The final concentration of ethanol was 0.5% in test and control wells. […] At all stages, media removal from cells was carried out gently and in a controlled fashion by use of an electronic multichannel pipette set to the lowest speed possible. Controls were run as eight replicate wells per plate and compounds were tested in a dilution series comprising eight concentrations, each concentration tested in two replicate wells per plate. The plate layout was designed to reduce variation due to evaporation and spreading of test chemicals, and had been previously optimised in the laboratory. After application of test solutions, plates were incubated for 120 hours before fixation with 10% trichloroacetic acid and sulforhodamine B (SRB) staining to measure protein and allow the indirect quantification of cell number.
(§1) Experiments were performed on different days meaning that results for different dilution series and different batches of the test chemicals were obtained on different days. Each single chemical was tested in three or more independent experiments. Use of normalisation meant that data from different experiments could be reliably combined and compared, as discussed previously. Data was expressed relative to the positive control, rather than as fold change from the vehicle response, for two reasons.
(§2) Results from regression analysis for each test chemicals were used to predict the CA effect for fixed-ratio mixtures designed on 1) equi-effective concentrations (balanced design), 2) possible human serum levels (non-balanced design). The original mathematical formulation of CA that defines for a mixture composed of n components with concentration c1 of the first component, c2 of the second component, and cn for the n-th component a combination effect X is [drawing 1] (1) Here, ECX1, ECX1 …, ECXn are the concentrations of the individual components that on their own produce the same effect X as the mixture, [15] The quotients cn/ECXn are called toxic units and scale all compounds in the mixture relative to their toxicity. They can be interpreted as the contribution of the compound to the total mixture concentration that is expected to produce the mixture effect X. According to equation 1, a mixture effect for a pre-defined effect level X is described only implicitly. However, if the individual concentrations ci are expressed as relative fractions pi to the total mixture concentration ECxMix, then equation 1 can be re-arranged to [drawing 2] (2) which allows the direct calculation of the mixture concentration that is expected to produce the mixture effect X. To form a prediction curve, equation 2 is iterated through for various effect levels resulting in sets of effects and their associated predicted mixture concentration which are then plotted to produce a graph of the effect prediction.
Both equations 1 and 2 require knowledge of the concentration of each mixture component that on its own produces the effect magnitude under consideration. For this reason, these equations cannot be used for predicting mixture effects that exceed the maximal effect of the least efficacious component, because those effect concentrations cannot be defined.

[3] = test system: T47D-KBluc cells; assay: cells; conditions: ERLUX
Method: T47D-KBluc cells were obtained from the ATCC and the protocol established by the depositing authors was followed. Cells were routinely grown in RPMI media (with 10% foetal calf serum (FCS)). For seven days prior to experiments, cells were maintained in low estrogen conditions by the use of pre-assay media (RPMI, 10% charcoal-dextran stripped FCS, no antibiotics). For experiments, cells were seeded in white polystyrene 96 well plates at a density of 10,000 cells/well and allowed to attach for 24 hours before removal of media, and application of test chemicals. Test chemicals were dissolved in ethanol to give stock solutions of millimolar concentrations. Test and control solutions were obtained by dilution of ethanolic stocks in dosing media (phenol red-free RPMI, 5% charcoal-dextran stripped FCS, no antibiotics), and in all cases the final concentration of ethanol was 0.5%. The positive control was 1 nM estradiol. Positive and vehicle controls were run as eight replicate wells per plate, and compounds were tested in a dilution series comprising eight concentrations, each concentration tested in triplicate. As recommended by Wilson et al. two additional controls were also included on each plate: 1) vehicle control plus an antiestrogen, ICI 182,780 (1 µM), and 2) positive control plus ICI 182,780 (1 µM). […] A crude measure of toxicity was provided by comparing values for treatments that were not positive, with the value of the vehicle control. […] 24 hours after application of test and control solutions, a volume of Steady-Glo assay reagent (Promega) equal to the volume of culture media was added and plates were incubated for ten minutes, with shaking, to allow for cell lysis. Plates were then loaded into a plate reader (FLUOstar Optima, BMG Labtech) and incubated for a further ten minutes in the dark, followed by measurement of luminescence. To reduce variation, the temperature of the plate reader chamber was maintained at 27°C throughout.
as §1
Effect concentrations (ECx) were defined relative to the effects of the estradiol concentration used as the positive control, for example EC50 is the concentration producing an effect of 50% of the positive control (estradiol, 1 nM (ERLUX) or 25 nM (ESCREEN)).
as §2, with “implicitly.” for “implicitly. However, if the individual concentrations ci are expressed as relative fractions pi to the total mixture concentration ECxMix, then equation 1 can be re-arranged to [drawing 2] (2) which allows the direct calculation of the mixture concentration that is expected to produce the mixture effect X. To form a prediction curve, equation 2 is iterated through for various effect levels resulting in sets of effects and their associated predicted mixture concentration which are then plotted to produce a graph of the effect prediction.”

| SMILES | Modulation of the REFmix effect (in words) [1] | Observed modulation [1] | Signs of toxicity (in words) ([2]; ESCREEN) | Signs of estrogenicity (in words) ([2]; ESCREEN) | also measured |
| --- | --- | --- | --- | --- | --- |
| Clc1cc(Cl)c(-c2cc(Cl)c(Cl)cc2Cl)cc1Cl [PCB #153, 2,2′,4,4′,5,5′-hexachloro biphenyl (PCB #153)] | no indication of negative modulation | None | None | None |  |
| Clc1ccc(-c2ccccc2Cl)cc1 [PCB #8, 2,4′-dichlorobiphenyl (PCB #8)] | no indication of negative modulation | None | None | None |  |
| CCCCC(CC)COC(=O)c1ccccc1C(=O)OCC(CC)CCCC (centres unmarked) [DEHP, Di ethyl hexyl phthalate] | no indication of negative modulation | None |  |  | Estrogenicity when tested alone (in words) [3]: no estrogenicity; Concentration at which estrogenicity occurred when tested alone ([2]; ESCREEN): greater than 1 µM; Concentration at which toxicity began ([2]; ESCREEN, before a full estrogenic response was reached): 5 µM; Signs of toxicity at the highest concentrations (in words) ([2]; ESCREEN, highest concentrations shown in Figure 2, may indicate toxicity): decline in response; Signs of estrogenicity: Active at concentration ([2]; ESCREEN): Active at 1 µM or higher |
| Cc1cnc2ccc3c(nc(N)n3C)c2n1 [MeIQx, 2-Amino-3,8-dimethyl imidazo [4,5-f] quinoxaline] | no indication of negative modulation | None | None | None |  |
| [Cl][Cd][Cl] [CdCl2, Cadmium chloride] | clear negative modulation; also recorded: showed negative modulation | Clear negative |  | None | Concentration at which suppression of the ESCREEN response to REFmix began [1]: around 10 nM; Suppression of the REFmix effect ([1]; at 10 µM): 80% |
| Clc1cc(Cl)c(-c2cc(Cl)c(Cl)c(Cl)c2Cl)cc1Cl [PCB #180, 2,2′,3,4,4′,5,5′-heptachloro biphenyl (PCB #180)] | no indication of negative modulation | None |  | None | Signs of toxicity (in words) [2]: None |
| Cn1c(N)nc2ncc(-c3ccccc3)cc21 [PhIP, 2-amino-1-methyl-6-phenylimidazo [4,5-b] pyridine] | possible negative modulation | Possible negative | None | None |  |
| Clc1ccc(-c2cc(Cl)c(Cl)c(Cl)c2)cc1Cl [PCB #126, 3,3′,4,4′,5-pentachlorobiphenyl (PCB #126)] | clear negative modulation | Clear negative | None |  | Concentration at which suppression of the ESCREEN response to REFmix began [1]: 1–10 nM and around 10 nM; Suppression of the ESCREEN response to REFmix ([1]; at 100 nM, plateau at that level up to 10 µM): 50%; Signs of estrogenicity: Active at concentration ([2]; ESCREEN): Active at 10 µM or higher |
| Cc1cc(C(C)(C)C)c(O)c(C(C)(C)C)c1 [BHT, Butylated hydroxytoluene] | possible negative modulation | Possible negative | None | None |  |
| O=[N+]([O-])[O-].O=[N+]([O-])[O-].[Pb+2] [Pb(NO3)2, Lead nitrate] | possible negative modulation | Possible negative | None | None |  |
| COc1ccc(O)c(C(C)(C)C)c1 [BHA, Butylated hydroxyl anisole] | possible negative modulation | Possible negative | None | None |  |
